Consider four molecules from patent publication US20090197947A1, “MEDICAMENTS AND METHODS FOR LOWERING PLASMA LIPID LEVELS AND SCREENING DRUGS” (The Research Foundation of State University of New York, priority 2008, published 2009).

Data set [1] can be described thus: Effect of efflux enhancer and cholesterol biosynthesis inhibitor on plasma lipids and liver function enzymes in PBS and pIpC injected animals. In kind it is in vivo, mice. The note with it: 50 mg/Kg oral gavage every day for 2 weeks; for plasma cholesterol levels / plasma triglyceride levels: MTP gene deleted (pIpC injected) mice. An excerpt: In this Example, blood was collected from tail vein of animals on day 1 of the experiment and used to measure plasma lipid and liver function enzyme levels (Day 1, “Control”). Conditional MTP deletion was achieved by injecting pIpC three times in […] mice on alternate days. Control group mice (n=2) received either PBS (open bars) or pIpC (closed bars) injections. […] On day 8, blood was again collected to measure changes in plasma lipid and liver function enzyme levels. Mice were sacrificed on day 16 and plasma samples were then assayed for total cholesterol (A), triglyceride (B), ALT (C) and AST (D) levels. Each measurement was performed in triplicate. The asterisks show statistically significant differences between PBS and pIpC injected mice. (*, p<0.05, **, p<0.01, ***, p<0.001.)

Data set [2] can be described thus: Effect of efflux enhancer and cholesterol biosynthesis inhibitor on hepatic mRNA, MTP activity and lipid levels in PBS and pIpC injected animals. It counts as in vivo. The note with it: liver of drug administered pIpC injected mice. From the text:
In this Example, total RNA was isolated from the liver of drug administered PBS and pIpC injected mice and used for quantitative RT-PCR of HMG-CoA reductase (FIG. 5, Panel A), ABCA1 (FIG. 5, Panel B), MTP (FIG. 5, Panel C) as well as ARPp0 mRNA. The ratio of candidate gene to ARPp0 in one PBS injected mice was used for normalization. Liver tissues were also used to measure MTP activity (FIG. 5, Panel D). In addition, triglyceride (FIG. 5, Panel E), total (FIG. 5, Panel F), Free (FIG. 5, Panel G) and Esterified (FIG. 5, Panel H) cholesterol levels were measured. (*, p<0.05, **, p<0.01, ***, p<0.001.)

For the next data set, the system named is Caco-2 cells. Put plainly: Caco-2 cells treated with MTP and ACAT antagonists, alone or in combination. It counts as cell-based. On the set-up: inhibition of cellular esterification of [3H] cholesterol: dose or concentration left out as unconfirmed. The method, then:
Thus, it was hypothesized that MTP (BMS 197636) and ACAT (1 488 17) antagonists would inhibit cellular esterification by independent mechanisms and their effect would be additive. To test this hypothesis, Caco-2 cells were treated with different amounts of these inhibitors, alone or in combination, and the inhibition was compared with cells that were not exposed to any inhibitors (FIG. 9, L-N). Increasing concentrations of BMS 197636 decreased apoB secretion (FIG. 9, L). In contrast, ACAT inhibitor had no effect on apoB secretion. […] ApoAI secretion was resistant to both the inhibitors (FIG. 9, M). […] These inhibitors in combination reduced cholesteryl ester synthesis by 45 +/−4% (FIG. 9, N). Thus, MTP and ACAT act in tandem and facilitate cellular cholesteryl esterification.

Data set [3] has as its system AC29 cells that do not express MTP but stably express ACAT1 or ACAT2. Put plainly: Cellular cholesteryl ester synthesis in AC29 cells that do not express MTP. It counts as cell-based. The note with it: AC29 cells stably expressing ACAT1 or ACAT2. Here is the method:
Next, the effect of these inhibitors on cellular cholesteryl ester synthesis was examined. […] In these cells, MTP inhibitor BMS 197636 had no effect on cellular cholesteryl ester synthesis (FIG. 9, J and K). However, incubation of these cells with ACAT inhibitor 148817 reduced radio-labeled cholesteryl esters by 83-87% (FIG. 9, J, K).

Regarding `CCCCCCCCCCCCCCCC(=O)O[C@H]1CC[C@@]2(C)C(=CC[C@H]3[C@@H]4CC[C@H]([C@H](C)CCCC(C)C)[C@@]4(C)CC[C@@H]32)C1` [cholesteryl palmitate], in the data set with liver microsomes (liver microsomes incubated 30 min, centrifuged), the “concentration up to which microsomes are enriched with cholesterol (saturation thereafter)” value is reported as “approximately 1.25 μM”. Further, the “inhibition of cholesteryl ester synthesis” value with liver microsomes (liver microsomes, 0.5 μM cholesteryl palmitate) is 32%.
Turning to `O=S(=O)(c1ccccc1)N(CC(F)(F)F)c1ccc(C(O)(C(F)(F)F)C(F)(F)F)cc1` [T0901317], in data set [1], the plasma cholesterol levels entry is “not significantly altered” and the plasma triglyceride levels result was “not significantly altered”. Also, the “increases in hepatic free cholesterol levels in MTP gene deleted animals” value in data set [2] is given as “reduced”.
Regarding `CC[C@H](C)C(=O)O[C@H]1C[C@@H](C)C=C2C=C[C@H](C)[C@H](CC[C@@H]3C[C@@H](O)CC(=O)O3)[C@H]21` [lovastatin, Lovastatin], in data set [1], the plasma cholesterol levels entry is listed as “not significantly altered” and the plasma triglyceride levels entry is given as “not significantly altered”. Further, in data set [1] (pIpC injected mice), the “increase in plasma ALT levels due to MTP gene deletion” value was “not seen” and the “increase in plasma AST levels due to MTP gene deletion” value was “not seen”. Also, the “increases in hepatic free cholesterol levels in MTP gene deleted animals” value in data set [2] is recorded as “reduced”.
In the case of `CCCNC(=O)C1(CCCCN2CCC(N3Cc4ccccc4C3=O)CC2)c2ccccc2-c2ccccc21` [BMS 197636], the ApoAI secretion entry in the data set on Caco-2 cells is given as “resistant”. The apoB secretion entry in the data set on Caco-2 cells (increasing concentrations, inhibitor alone) is listed as “decreased”. The “inhibition of cellular esterification of [3H] cholesterol” value in the data set with Caco-2 cells (individually) was 25 +/−2%. For the same molecule, the “cellular cholesteryl ester synthesis” value in data set [3] is given as “no effect”.
